# Source: ChEMBL document CHEMBL1201862, “PubChem BioAssay data set” (2004)
#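 Cultured in 96-well plates, cells were exposed to test compound for 48 hours across five concentrations. The concentration for 50% growth inhibition is given as GI50.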 The source made the active and inactive calls. Cut-off read from the data, not from the text of the source: active = GI50 up to about 1.1 µM and inactive = higher.
# Assays:
# Experiment in all cases: NCI tumour cell line growth inhibition, 48 h
# HL-60 = tested on: HL-60
# CCRF-CEM = tested on: CCRF-CEM
# NCI/ADR-RES = tested on: NCI/ADR-RES
# IGROV-1 = tested on: IGROV-1
# TK-10 = tested on: TK-10
# SK-MEL-5 = tested on: SK-MEL-5
# KM12 = tested on: KM12
# NCI-H522 = tested on: NCI-H522
# 786-0 = tested on: 786-0
# EKVX = tested on: EKVX
# RXF 393 = tested on: RXF 393
# SK-OV-3 = tested on: SK-OV-3
# Malme-3M = tested on: Malme-3M
# OVCAR-8 = tested on: OVCAR-8
# M14 = tested on: M14
# K562 = tested on: K562
# UO-31 = tested on: UO-31
# PC-3 = tested on: PC-3
# SR = tested on: SR
# T47D = tested on: T47D
Structure (SMILES),GI50 (HL-60),GI50 (CCRF-CEM),GI50 (NCI/ADR-RES),GI50 (IGROV-1),GI50 (TK-10),GI50 (SK-MEL-5),GI50 (KM12),GI50 (NCI-H522),GI50 (786-0),GI50 (EKVX),GI50 (RXF 393),GI50 (SK-OV-3),GI50 (Malme-3M),GI50 (OVCAR-8),GI50 (M14),GI50 (K562),GI50 (UO-31),GI50 (PC-3),GI50 (SR),GI50 (T47D)
CN(C)CC1CC/C(=C\c2ccc(Cl)cc2)C1=O (centres undefined),0.757 µM (active),0.611 µM (active),3.24 µM (inactive),14.6 µM (inactive),9.86 µM (inactive),11.9 µM (inactive),3.46 µM (inactive),3.48 µM (inactive),2.2 µM (inactive),12.7 µM (inactive),3.16 µM (inactive),15.7 µM (inactive),7.11 µM (inactive),3.58 µM (inactive),10.1 µM (inactive),0.908 µM (active),16.6 µM (inactive),,,
C[C@]12CC(c3ccccc3O1)C(C(=O)NC13CC4CC(CC(C4)C1)C3)C(=O)N2 (some centres undefined),,20 µM (inactive),20.3 µM (inactive),31.4 µM (inactive),70.1 µM (inactive),17.9 µM (inactive),35.5 µM (inactive),39 µM (inactive),18.3 µM (inactive),0.249 µM (active),25.6 µM (inactive),64.9 µM (inactive),33 µM (inactive),26.6 µM (inactive),15.6 µM (inactive),14 µM (inactive),20 µM (inactive),32.1 µM (inactive),,
COc1ccc(-c2cn3c(nc4ccccc43)c(/C=C/c3cccs3)n2)cc1,20.4 µM (inactive),,13 µM (inactive),,> 100 µM (inactive),15.8 µM (inactive),11.9 µM (inactive),,71.3 µM (inactive),,> 100 µM (inactive),75.2 µM (inactive),23.4 µM (inactive),,37.8 µM (inactive),9.48 µM (inactive),> 100 µM (inactive),,2.65 µM (inactive),43.2 µM (inactive)
NS(=O)(=O)c1nnc(NS(=O)(=O)c2cccc3cccnc23)s1,,> 100 µM (inactive),> 100 µM (inactive),,> 100 µM (inactive),> 100 µM (inactive),> 100 µM (inactive),,> 100 µM (inactive),> 100 µM (inactive),> 100 µM (inactive),> 100 µM (inactive),,> 100 µM (inactive),> 100 µM (inactive),> 100 µM (inactive),> 100 µM (inactive),,41.9 µM (inactive),> 100 µM (inactive)
O=C1NC(=S)NC(=O)C1=Cc1ccc2ccccc2n1,> 100 µM (inactive),> 100 µM (inactive),,> 100 µM (inactive),> 100 µM (inactive),> 100 µM (inactive),> 100 µM (inactive),> 100 µM (inactive),> 100 µM (inactive),> 100 µM (inactive),> 100 µM (inactive),> 100 µM (inactive),> 100 µM (inactive),> 100 µM (inactive),> 100 µM (inactive),> 100 µM (inactive),> 100 µM (inactive),,> 100 µM (inactive),
NC1=NS(=O)(=O)N=C(N)C1=Cc1ccc([N+](=O)[O-])o1,5.51 µM (inactive),9.33 µM (inactive),,18.2 µM (inactive),18.6 µM (inactive),15.3 µM (inactive),18.5 µM (inactive),17.7 µM (inactive),17.1 µM (inactive),17.9 µM (inactive),18.8 µM (inactive),35 µM (inactive),16 µM (inactive),17.3 µM (inactive),14 µM (inactive),6.01 µM (inactive),17.9 µM (inactive),,3.73 µM (inactive),
O=c1[nH]c(S)nc2c1sc(=S)n2-c1ccccc1,> 100 µM (inactive),> 100 µM (inactive),,> 100 µM (inactive),> 100 µM (inactive),> 100 µM (inactive),> 100 µM (inactive),> 100 µM (inactive),> 100 µM (inactive),> 100 µM (inactive),> 100 µM (inactive),> 100 µM (inactive),> 100 µM (inactive),> 100 µM (inactive),> 100 µM (inactive),> 100 µM (inactive),> 100 µM (inactive),,> 100 µM (inactive),
O=C1C(=C/C=C2/SC(c3ccccc3)(c3ccccc3)c3ccccc32)C(=O)c2ccccc21,,,> 100 µM (inactive),> 100 µM (inactive),> 100 µM (inactive),> 100 µM (inactive),> 100 µM (inactive),> 100 µM (inactive),> 100 µM (inactive),> 100 µM (inactive),> 100 µM (inactive),> 100 µM (inactive),> 100 µM (inactive),> 100 µM (inactive),> 100 µM (inactive),> 100 µM (inactive),> 100 µM (inactive),80.7 µM (inactive),,
O=C1C(c2ccccc2)=[N+]([O-])c2ccc(Cl)cc21,10.6 µM (inactive),25.9 µM (inactive),,20.6 µM (inactive),29.2 µM (inactive),17.3 µM (inactive),30.1 µM (inactive),15.3 µM (inactive),82.4 µM (inactive),16.9 µM (inactive),13.2 µM (inactive),> 100 µM (inactive),26.2 µM (inactive),15 µM (inactive),27.8 µM (inactive),32.5 µM (inactive),43.3 µM (inactive),,34.7 µM (inactive),
NC1CC(Cl)c2c(Cl)sc(Cl)c21 (centres undefined),> 100 µM (inactive),34 µM (inactive),> 100 µM (inactive),> 100 µM (inactive),> 100 µM (inactive),> 100 µM (inactive),> 100 µM (inactive),< 0.01 µM (active),> 100 µM (inactive),> 100 µM (inactive),14.2 µM (inactive),> 100 µM (inactive),> 100 µM (inactive),> 100 µM (inactive),> 100 µM (inactive),> 100 µM (inactive),> 100 µM (inactive),,61.8 µM (inactive),> 100 µM (inactive)
NCCSc1cc(O)c2c(c1N)C(=O)c1ccccc1C2=O,20.8 µM (inactive),16.8 µM (inactive),,18.8 µM (inactive),> 100 µM (inactive),12.9 µM (inactive),51.2 µM (inactive),19.6 µM (inactive),29.9 µM (inactive),> 100 µM (inactive),27.7 µM (inactive),> 100 µM (inactive),26 µM (inactive),27.9 µM (inactive),74.3 µM (inactive),22.2 µM (inactive),> 100 µM (inactive),,20.8 µM (inactive),
CCOC(=O)c1csc(CCCCCCc2nc(C(=O)OCC)cs2)n1,> 48.3 µM (inactive),> 42.3 µM (inactive),,> 100 µM (inactive),> 92.5 µM (inactive),41.6 µM (inactive),> 100 µM (inactive),> 100 µM (inactive),33.2 µM (inactive),> 86.7 µM (inactive),31.6 µM (inactive),> 65.5 µM (inactive),> 74.5 µM (inactive),31.8 µM (inactive),> 100 µM (inactive),> 40.1 µM (inactive),> 100 µM (inactive),,> 100 µM (inactive),
C1CN(P2(N3CC3)=NP(N3CC3)(N3CC3)=NP(N3CC3)(N3CC3)=N2)CCO1 (centres undefined) [FOTRETAMINE],36.6 µM (inactive),23 µM (inactive),,> 100 µM (inactive),> 100 µM (inactive),> 100 µM (inactive),> 100 µM (inactive),> 100 µM (inactive),55.3 µM (inactive),> 100 µM (inactive),> 100 µM (inactive),> 100 µM (inactive),> 100 µM (inactive),> 100 µM (inactive),> 100 µM (inactive),> 77.8 µM (inactive),> 100 µM (inactive),,2.47 µM (inactive),
COC(=O)[C@@H]1CCc2nc3ccccc3c(=O)n21,> 100 µM (inactive),> 100 µM (inactive),> 100 µM (inactive),> 100 µM (inactive),> 100 µM (inactive),> 100 µM (inactive),> 100 µM (inactive),> 100 µM (inactive),> 100 µM (inactive),> 100 µM (inactive),,> 100 µM (inactive),,> 100 µM (inactive),> 100 µM (inactive),> 100 µM (inactive),> 100 µM (inactive),,> 100 µM (inactive),> 100 µM (inactive)
Cc1nn(C(=O)Cc2ccccc2)c2c1C(c1ccc([N+](=O)[O-])cc1)SC(=N)N2 (centres undefined),> 100 µM (inactive),> 100 µM (inactive),,> 100 µM (inactive),> 100 µM (inactive),> 100 µM (inactive),> 100 µM (inactive),> 100 µM (inactive),> 100 µM (inactive),> 100 µM (inactive),,> 100 µM (inactive),> 100 µM (inactive),> 100 µM (inactive),> 100 µM (inactive),> 100 µM (inactive),,> 100 µM (inactive),> 100 µM (inactive),> 100 µM (inactive)
CCN(CC)C(=S)N/N=C1\C(=O)Nc2ccccc21,0.338 µM (active),0.347 µM (active),0.152 µM (active),0.239 µM (active),0.348 µM (active),0.193 µM (active),0.451 µM (active),3.03 µM (inactive),0.432 µM (active),1.36 µM (inactive),1.3 µM (inactive),3.05 µM (inactive),0.298 µM (active),0.813 µM (active),0.586 µM (active),0.562 µM (active),,0.334 µM (active),0.968 µM (active),
